According to US9718841B2, “Bicyclic pyrazolone compounds and methods of use” (CALITOR SCIENCES, LLC, priority 2014, dated 2017):

What was measured:
[1] = Pharmacokinetic profiles in rats; format: in vivo; details: bioavailability
Procedure: The compounds disclosed herein are assessed in pharmacokinetic studies in mice, rats, dogs or monkeys. The compounds are administered as a water solution, 2% HPMC+1% TWEEN® 80 in water solution, 5% DMSO+5% solutol in saline, 4% MC suspension or capsule. For the intravenous administration, the animals are generally given at 1 or 2 mg/kg dose. For the oral (p.o.) dosing, mice and rats are generally given 5 or 10 mg/kg dose, and dogs and monkeys are generally given 10 mg/kg dose. The blood samples (0.3 mL) are drawn at 0.25, 0.5, 1.0, 2.0, 3.0, 4.0, 6.0, 8.0, 12 and 24 h time points or 0.083, 0.25, 0.5, 1.0, 2.0, 4.0, 6.0, 8.0 and 24 h time points and centrifuged at 3,000 or 4000 rpm for 2 to 10 min. The plasma solutions are collected, and stored at −20° C. or −70° C. until analyzed by LC/MS/MS as described above.

[2] = Compound stability in human liver microsomes; format: in vitro ADME; details: 37° C.
Procedure: Human or rat liver microsomes incubations were conducted in duplicate in polypropylene tubes. The typical incubation mixtures consisted of human or rat liver microsomes (0.5 mg protein/mL), compounds of interest (5 μM) and NADPH (1.0 mM) in a total volume of 200 μL potassium phosphate buffer (PBS, 100 mM, pH 7.4). Compounds were dissolved in DMSO and diluted with PBS such that the final concentration of DMSO was 0.05%. The enzymatic reactions were commenced with the addition of protein after a 3-min preincubation and incubated in a water bath open to the air at 37° C. Reactions were terminated at various time points (0, 5, 10, 15, 30, 60 min) by adding equal volume of ice-cold acetonitrile. The samples were stored at −80° C. until LC/MS/MS assays.
The concentrations of compounds in the incubation mixtures of human or rat liver microsomes were determined by a LC/MS/MS method. The ranges of the linearity in the concentration range were determined for each tested compounds.
A parallel incubation was performed using denatured microsomes as the negative control, and reactions were terminated at various time points (0, 15, 60 min) after incubation at 37° C.
Dextromethorphan (70 μM) was selected as the positive control, and reactions were terminated at various time points (0, 5, 10, 15, 30, 60 min) after incubation at 37° C. […]

Structure (SMILES) | F [1] [%] | T1/2 [2]
O=C(Nc1ccc(Oc2ccnc(NC(=O)C3CC3)c2)cc1)c1c2n(n(-c3ccccc3)c1=O)CCOC2 [Ex. 19, N-(4-((2-(cyclopropanecarboxamido)pyridin-4-yl)oxy)phenyl)-2-oxo-1-phenyl-2,4,6,7-tetrahydro-1H-pyrazolo[5,1-c][1,4]oxazine-3-carboxamide] | 66.7 | ∞
O=C(Nc1ccc(Oc2ccnc(NC(=O)C3CC3)c2)cc1)c1c2n(n(-c3ccccc3)c1=O)CCC2 [Ex. 2, N-(4-((2-(cyclopropanecarboxamido)pyridin-4-yl)oxy)phenyl)-2-oxo-1-phenyl-2,4,5,6-tetrahydro-1H-pyrrolo[1,2-b]pyrazole-3-carboxamide] | 68.1 | –
O=C(Nc1ccc(Oc2ccnc(NC(=O)C3CC3)c2)cn1)c1c2n(n(-c3ccccc3)c1=O)CCC2 [Ex. 14, N-(5-((2-(cyclopropanecarboxamido)pyridin-4-yl)oxy)pyridin-2-yl)-2-oxo-1-phenyl-2,4,5,6-tetrahydro-1H-pyrrolo[1,2-b]pyrazole-3-carboxamide] | 87.9 | –
CC(=O)Nc1cc(Oc2ccc(NC(=O)c3c4n(n(-c5ccccc5)c3=O)CCOC4)nc2)ccn1 [Ex. 12, N-(5-((2-acetamidopyridin-4-yl)oxy)pyridin-2-yl)-2-oxo-1-phenyl-2,4,6,7-tetrahydro-1H-pyrazolo[5,1-c][1,4]oxazine-3-carboxamide] | 72.1 | ∞

Next, values leading:

F [1] [%] | T1/2 [2] | Structure (SMILES)
94.5 | – | CC(=O)Nc1cc(Oc2ccc(NC(=O)c3c4n(n(-c5ccccc5)c3=O)CCC4)cc2)ccn1 [Ex. 3, N-(4-((2-acetamidopyridin-4-yl)oxy)phenyl)-2-oxo-1-phenyl-2,4,5,6-tetrahydro-1H-pyrrolo[1,2-b]pyrazole-3-carboxamide]
163.3 | – | Nc1cc(Oc2ccc(NC(=O)c3c4n(n(-c5ccccc5)c3=O)CCC4)cc2)ccn1 [Ex. 1, N-(4-((2-aminopyridin-4-yl)oxy)phenyl)-2-oxo-1-phenyl-2,4,5,6-tetrahydro-1H-pyrrolo[1,2-b]pyrazole-3-carboxamide]
